Reference: PMC5966831 (Biochemistry, 2013)
Read-outs that look alike come from different tables or passages of the source.

B1: E. coli RBP: Escherichia coli ribose binding protein (protein, UniProt P02925 26-296, looked up)
Ribose import binding protein …: KDTIALVVSTLNNPFFVSLKDGAQKEADKLGYNLVVLDSQNNPAKELANVQDLTVRGTKILLINPTDSDAVGNAVKMANQANIPVITLDRQATKGEVVSHIASDNVLGGKIAGDYIAKKAGEGAKVIELQGIAGTSAARERGEGFQQAVAAHKFNVLASQPADFDRIKGLNVMQNLLTAHPDVQAVFAQNDEMALGALRALQTAGKSDVMVVGFDGTPDGEKAVNDGKLAATIAQLPDQIGAKGVETADKVLKGEKVQAKYPVDLKLVVKQ

Key:
N′60 = N′60 (Caldanaerobacter subterraneus, UniProt Q8RD41, C137S/L167D); type: binding; conditions: SD, n = 3
N′70 = N′70 (Caldanaerobacter subterraneus, UniProt Q8RD41, C137S/L167D); type: binding; conditions: SD, n = 3
N′186 = N′186 (Caldanaerobacter subterraneus, UniProt Q8RD41, C137S/L167D); type: binding; conditions: SD, n = 3
N′210 = N′210 (Caldanaerobacter subterraneus, UniProt Q8RD41, C137S/L167D); type: binding; conditions: SD, n = 3
AFF70 [1] = target: T1, AFF70 (Caldanaerobacter subterraneus, UniProt Q8RD41, C137S/F53A/F54A/INS105C/L167D); type: binding; conditions: SD, n = 3
AFF186 [2] = target: T2, AFF186 (Caldanaerobacter subterraneus, UniProt Q8RD41, C137S/D254S/INS221C/L167D); type: binding; conditions: SD, n = 3
AFF210 [3] = target: T3, AFF210 (Caldanaerobacter subterraneus, UniProt Q8RD41, C137S/D254S/INS245C/L167D); type: binding; conditions: SD, n = 3
AFF70 [4] = target: T1, AFF70; experiment: Equilibrium fluorescence; type: binding
AFF186 [5] = target: T2, AFF186; experiment: Equilibrium fluorescence; type: binding
AFF210 [6] = target: T3, AFF210; experiment: Equilibrium fluorescence; type: binding
[7] = Thermal denaturation monitored by circular dichroism; type: physicochemical; conditions: E. coli RBP and its permutants, apo forms, Figure S7

Row | Molecule | Kd (N′60) | Kd (N′70) | Kd (N′186) | Kd (N′210) | Kd (AFF70 [1]) | Kd (AFF186 [2]) | Kd (AFF210 [3]) | Kd (AFF70 [4]) | Kd (AFF186 [5]) | Kd (AFF210 [6]) | Tm [7]
1 | OC1OC[C@@H](O)[C@@H](O)[C@H]1O (stereo partly drawn) [ribose, D-ribose] | 21.3 ± 1.1 nM | 2740 ± 240 nM | 38.1 ± 0.4 nM | 21.6 ± 1.4 nM | 46.6 ± 5.5 nM | 58.8 ± 0.17 nM | 26.1 ± 1.5 nM | 4200 nM | 12300 nM | 4200 nM | –
2 | B1 | – | – | – | – | – | – | – | – | – | – | 55 °C
